The source of these data is patent US11986471B2, “Compounds and methods of use” (Tango Therapeutics, Inc., priority 2018, dated 2024).

Assay [1] has as its target T1, PRMT5 (Homo sapiens, UniProt O14744).
T1 construct: purchased Viva (custom protein)
The experiment in a line: PRMT5 IC50 assay in the presence of SAM as cofactor. Format: biochemical. In outline:
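IC50 against PRMT5 determined with SAM as cofactor, with no cofactor, and with MTA as cofactor. Ki derived as IC50/1.5 for the SAM assay and IC50/13.5 for the MTA assay; SAM Ki to MTA Ki ratio also reported.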

Assay [2] concerns the target T1, PRMT5. Kind of assay: PRMT5 IC50 assay with no cofactor. Format: biochemical. An outline of the steps: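 Each compound is tested on PRMT5 in the presence of SAM, of MTA, and without any cofactor. Ki values are then back-calculated using fixed factors of 1.5 (SAM) and 13.5 (MTA), and the two Ki values are compared as a ratio.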
In assay [3] the target is T1, PRMT5. Kind of assay: PRMT5 IC50 assay in the presence of MTA as cofactor. Format: biochemical. The following applies: for IC50: PRMT5, MTA as cofactor. In outline:
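IC50 values were measured against human PRMT5 with SAM, with MTA, or with no cofactor. Ki was derived from IC50 as Ki=IC50/1.5 with SAM and Ki=IC50/13.5 with MTA, and the Ki(SAM)/Ki(MTA) ratio was then taken.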

Another assay relates to HAP1 MTAP-intact. Kind of assay: SDMA in-cell western assay, HAP1 MTAP-intact cell line. Format: cell-based. The following applies: Homo sapiens. In outline: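 IC50 values come from SDMA in-cell western staining of HAP1 cells. The MTAP-intact line carries endogenous MTAP, while its MTAP-deleted counterpart lacks MTAP entirely. A selectivity ratio of at least 3 fold marks a compound as MTAP-selective.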

The next assay relates to HAP1 MTAP-deleted. Kind of assay: SDMA in-cell western assay, HAP1 MTAP-deleted cell line. Format: cell-based. The following applies: for IC50: Homo sapiens, HAP1 MTAP-deleted cell line; for MTAP Intact/Deleted Ratio: IC50 ratio HAP1 MTAP-intact / HAP1 MTAP-deleted. In outline: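 Readout is cellular SDMA signal by in-cell western, with IC50 values derived from it. The cells are MTAP-null HAP1, matched to an isogenic MTAP-intact HAP1 line.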

Setting [4] is: ratio between the Ki in the presence of SAM and the Ki in the presence of MTA.
[5] abbreviates: ratio between Ki in the presence of SAM and Ki in the presence of MTA.

T1 sequence (O14744 whole entry): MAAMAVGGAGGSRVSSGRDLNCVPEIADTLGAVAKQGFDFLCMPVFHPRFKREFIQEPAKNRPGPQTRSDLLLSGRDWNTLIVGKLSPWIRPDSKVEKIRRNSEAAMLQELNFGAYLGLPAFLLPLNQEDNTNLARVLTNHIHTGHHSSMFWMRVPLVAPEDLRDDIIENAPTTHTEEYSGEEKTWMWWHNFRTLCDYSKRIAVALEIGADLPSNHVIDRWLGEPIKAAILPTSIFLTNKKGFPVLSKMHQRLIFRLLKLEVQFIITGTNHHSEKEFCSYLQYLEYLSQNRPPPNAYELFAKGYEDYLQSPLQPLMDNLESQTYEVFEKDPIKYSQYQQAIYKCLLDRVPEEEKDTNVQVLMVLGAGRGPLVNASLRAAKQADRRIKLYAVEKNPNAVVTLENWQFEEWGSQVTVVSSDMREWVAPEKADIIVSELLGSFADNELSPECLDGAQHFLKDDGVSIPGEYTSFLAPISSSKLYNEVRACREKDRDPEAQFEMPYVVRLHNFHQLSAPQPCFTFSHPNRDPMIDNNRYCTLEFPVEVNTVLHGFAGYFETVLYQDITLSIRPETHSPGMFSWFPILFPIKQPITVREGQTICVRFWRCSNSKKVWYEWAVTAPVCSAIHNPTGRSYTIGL
T1 sequence (Q9BQA1 whole entry partner): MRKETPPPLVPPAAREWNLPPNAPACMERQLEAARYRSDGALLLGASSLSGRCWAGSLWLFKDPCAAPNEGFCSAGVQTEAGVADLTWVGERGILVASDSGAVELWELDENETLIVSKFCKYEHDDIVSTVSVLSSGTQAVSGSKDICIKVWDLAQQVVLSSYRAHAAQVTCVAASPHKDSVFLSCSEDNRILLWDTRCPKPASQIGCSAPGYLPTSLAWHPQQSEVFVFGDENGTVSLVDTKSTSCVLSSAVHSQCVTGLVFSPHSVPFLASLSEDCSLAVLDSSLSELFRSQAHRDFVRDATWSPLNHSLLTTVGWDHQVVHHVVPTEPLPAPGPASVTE

As usually defined, the IC50 is the concentration at which inhibition is half-maximal. As to `CC(C)(C)C(=O)N1CCC(Nc2cc(C(=O)NC[C@H](O)CN3CCc4cc(OCc5cnco5)ccc4C3)ccn2)CC1` [Compound 449, 2-[[1-(2,2-dimethylpropanoyl)-4-piperidyl]amino]-N-[(2S)-2-hydroxy-3-[6-(oxazol-5-ylmethoxy)-3,4-dihydro-1H-isoquinolin-2-yl]propyl]pyridine-4-carboxamide], the 50% inhibitory concentration (IC50) on PRMT5 [1] was 0.05 to 0.5 µM; on PRMT5 [2] it was 0.5 to 5 µM; at PRMT5 [3], 0.05 to 0.5 µM; in the assay with HAP1 MTAP-intact, 1 to 10 µM; in the assay with HAP1 MTAP-deleted, < 1 µM. The “SAM/MTA Ratio” value on PRMT5 [3] (setting [4]) was “A (a Ki ratio greater than or equal to 10 fold between the Ki in the presence of SAM and the Ki in the presence of MTA)”. Moreover, the “MTAP Intact/Deleted Ratio” value in the assay on HAP1 MTAP-deleted was “C* (an IC50 ratio of less than 3 fold between the IC50 in the HAP1 MTAP-intact cell line and the HAP1 MTAP-deleted cell line)”.
Consider `Cc1ncoc1COc1ccc2c(c1)CCN(C[C@@H](O)CNC(=O)c1cc(NC3CCC3)nc(NC3CCC3)c1)C2` [Compound 636, (S)-2,6-bis(cyclobutylamino)-N-(2-hydroxy-3-(6-((4-methyloxazol-5-yl)methoxy)-3N-dihydroisoquinolin-2(1H)-yl)propyl)isonicotinamide], for which the IC50 on PRMT5 [1] is 0.05 to 0.5 µM; on PRMT5 [2] (read-out: No Co-factor IC50), 0.5 to 5 µM; on PRMT5 [3], 0.05 to 0.5 µM; in the assay with HAP1 MTAP-intact, 1 to 10 µM; in the assay on HAP1 MTAP-deleted it was < 1 µM. Also, the “SAM/MTA Ratio” value at PRMT5 [3] (setting [5]) is “A (a Ki ratio greater than or equal to 10 fold between the Ki in the presence of SAM and the Ki in the presence of MTA)”. Also, the “MTAP Intact/Deleted Ratio” value in the assay on HAP1 MTAP-deleted is “B* (an IC50 ratio greater than or equal to 3 fold but lower than 10 fold between the IC50 in the HAP1 MTAP-intact cell line and the HAP1 MTAP-deleted cell line)”.
Consider `CC(=O)N1CCC(Nc2cc(C(=O)NC[C@H](O)CN3CCc4cc(OCc5ocnc5C)ccc4C3)cc(N3CCN(C)CC3)n2)CC1` [Compound 584, 2-[(1-acetylpiperidin-4-yl)amino]-N-[(2S)-2-hydroxy-3-{6-[(4-methyl-1,3-oxazol-5-yl)methoxy]-1,2,3,4-tetrahydroisoquinolin-2-yl}propyl]-6-(4-methylpiperazin-1-yl)pyridine-4-carboxamide], for which the concentration for half-maximal inhibition (IC50) at PRMT5 [1] is 0.05 to 0.5 µM; against PRMT5 [2] it was 0.05 to 0.5 µM; at PRMT5 [3], 0.05 to 0.5 µM; in the assay with HAP1 MTAP-intact it was ≥ 10 µM; with HAP1 MTAP-deleted, 1 to 10 µM. Moreover, on PRMT5 [3] (setting [4]), the “SAM/MTA Ratio” value is “A (a Ki ratio greater than or equal to 10 fold between the Ki in the presence of SAM and the Ki in the presence of MTA)”. Also, the “MTAP Intact/Deleted Ratio” value with HAP1 MTAP-deleted is “B* (an IC50 ratio greater than or equal to 3 fold but lower than 10 fold between the IC50 in the HAP1 MTAP-intact cell line and the HAP1 MTAP-deleted cell line)”.
Take `CC(=O)N1CCC(Nc2cc(C(=O)NC[C@H](O)CN3CCc4c(ccc(OCc5cnco5)c4Cl)C3)ccn2)CC1` [Compound 429]: the 50% inhibitory concentration (IC50) on PRMT5 [1] was 0.05 to 0.5 µM; on PRMT5 [2] it was 0.5 to 5 µM; at PRMT5 [3] it was 0.05 to 0.5 µM; with HAP1 MTAP-intact, ≥ 10 µM; in the assay with HAP1 MTAP-deleted, 1 to 10 µM. In addition, the “SAM/MTA Ratio” value on PRMT5 [3] (setting [4]) was “A (a Ki ratio greater than or equal to 10 fold between the Ki in the presence of SAM and the Ki in the presence of MTA)”. Further, the “MTAP Intact/Deleted Ratio” value in the assay with HAP1 MTAP-deleted was “B* (an IC50 ratio greater than or equal to 3 fold but lower than 10 fold between the IC50 in the HAP1 MTAP-intact cell line and the HAP1 MTAP-deleted cell line)”.
`Cc1ncoc1COc1ccc2c(c1C)CCN(C[C@@H](O)CNC(=O)c1cc(NC3CCCCC3)ncn1)C2` [Compound 368, 6-(cyclohexylamino)-N-[(2S)-2-hydroxy-3-{5-methyl-6-[(4-methyl-1,3-oxazol-5-yl)methoxy]-1,2,3,4-tetrahydroisoquinolin-2-yl}propyl]pyrimidine-4-carboxamide]: the IC50 on PRMT5 [1] was 0.5 to 5 µM; on PRMT5 [2] (read-out: No Co-factor IC50), ≥ 5 µM; at PRMT5 [3], 0.05 to 0.5 µM; in the assay on HAP1 MTAP-intact, ≥ 10 µM; in the assay on HAP1 MTAP-deleted it was ≥ 10 µM. For the same molecule, on PRMT5 [3] (setting [5]), the “SAM/MTA Ratio” value is “A (a Ki ratio greater than or equal to 10 fold between the Ki in the presence of SAM and the Ki in the presence of MTA)”. Moreover, the “MTAP Intact/Deleted Ratio” value in the assay on HAP1 MTAP-deleted was “C* (an IC50 ratio of less than 3 fold between the IC50 in the HAP1 MTAP-intact cell line and the HAP1 MTAP-deleted cell line)”.
As for `CCCC(=O)N1CCC(Nc2cc(C(=O)NC[C@H](O)CN3CCc4c(ccc(OCc5cnco5)c4C)C3)ccn2)CC1` [Compound 470, (S)-2-((1-butyrylpiperidin-4-yl)amino)-N-(2-hydroxy-3-(5-methyl-6-(oxazol-5-ylmethoxy)-3,4-dihydroisoquinolin-2(1H)-yl)propyl)isonicotinamide], the IC50 is 0.05 to 0.5 µM on PRMT5 [1]; 0.5 to 5 µM on PRMT5 [2]; 0.05 to 0.5 µM on PRMT5 [3]; ≥ 10 µM in the assay with HAP1 MTAP-intact; < 1 µM in the assay on HAP1 MTAP-deleted. In addition, the “SAM/MTA Ratio” value on PRMT5 [3] (setting [4]) is “A (a Ki ratio greater than or equal to 10 fold between the Ki in the presence of SAM and the Ki in the presence of MTA)”. Also, the “MTAP Intact/Deleted Ratio” value in the assay with HAP1 MTAP-deleted was “A* (an IC50 ratio greater than or equal to 10 fold between the IC50 in the HAP1 MTAP-intact cell line and the HAP1 MTAP-deleted cell line)”.
As for `CC(=O)N1CCC(Nc2cc(C(=O)NC[C@H](O)CN3CCc4c(ccc(OCc5conc5C)c4C)C3)ncn2)CC1` [Compound 264, (S)-6-((1-acetylpiperidin-4-yl)amino)-N-(2-hydroxy-3-(5-methyl-6-((3-methylisoxazol-4-yl)methoxy)-3N-dihydroisoquinolin-2(1H)-yl)propyl)pyrimidine-4-carboxamide], the half-maximal inhibitory concentration (IC50) is 0.5 to 5 µM at PRMT5 [1]; ≥ 5 µM at PRMT5 [2] (read-out: No Co-factor IC50); 0.05 to 0.5 µM on PRMT5 [3]; ≥ 10 µM in the assay with HAP1 MTAP-intact; ≥ 10 µM with HAP1 MTAP-deleted. Besides, on PRMT5 [3] (setting [5]), the “SAM/MTA Ratio” value is “A (a Ki ratio greater than or equal to 10 fold between the Ki in the presence of SAM and the Ki in the presence of MTA)”. The “MTAP Intact/Deleted Ratio” value in the assay with HAP1 MTAP-deleted was “C* (an IC50 ratio of less than 3 fold between the IC50 in the HAP1 MTAP-intact cell line and the HAP1 MTAP-deleted cell line)”.
For the molecule `COc1cc(C(=O)NC[C@H](O)CN2CCc3c(ccc(OCc4cnco4)c3Cl)C2)cc(NC2CCC2)n1` [Compound 302, (S)—N-(3-(5-chloro-6-(oxazol-5-ylmethoxy)-3N-dihydroisoquinolin-2(1H)-yl)-2-hydroxypropyl)-2-(cyclobutylamino)-6-methoxyisonicotinamide], the concentration for half-maximal inhibition (IC50) on PRMT5 [1] is 0.5 to 5 µM; on PRMT5 [2] (read-out: No Co-factor IC50) it was ≥ 5 µM; at PRMT5 [3], 0.05 to 0.5 µM; in the assay on HAP1 MTAP-intact, ≥ 10 µM; with HAP1 MTAP-deleted it was ≥ 10 µM. In addition, the “SAM/MTA Ratio” value at PRMT5 [3] (setting [5]) is “A (a Ki ratio greater than or equal to 10 fold between the Ki in the presence of SAM and the Ki in the presence of MTA)”. Also, the “MTAP Intact/Deleted Ratio” value with HAP1 MTAP-deleted is “C* (an IC50 ratio of less than 3 fold between the IC50 in the HAP1 MTAP-intact cell line and the HAP1 MTAP-deleted cell line)”.
Take `CCCN(C)c1cc(C(=O)NC[C@H](O)CN2CCc3c(ccc(OCc4ocnc4C)c3C)C2)cc(NC2CCC2)n1` [Compound 480, 2-(cyclobutylamino)-N-[(2S)-2-hydroxy-3-{5-methyl-6-[(4-methyl-1,3-oxazol-5-yl)methoxy]-1,2,3,4-tetrahydroisoquinolin-2-yl}propyl]-6-[methyl(propyl)amino]pyridine-4-carboxamide]: the concentration for half-maximal inhibition (IC50) is 0.05 to 0.5 µM at PRMT5 [1]; ≥ 5 µM on PRMT5 [2]; 0.05 to 0.5 µM on PRMT5 [3]; ≥ 10 µM in the assay with HAP1 MTAP-intact; ≥ 10 µM in the assay on HAP1 MTAP-deleted. Further, the “SAM/MTA Ratio” value on PRMT5 [3] (setting [4]) was “A (a Ki ratio greater than or equal to 10 fold between the Ki in the presence of SAM and the Ki in the presence of MTA)”. In addition, the “MTAP Intact/Deleted Ratio” value in the assay with HAP1 MTAP-deleted was “C* (an IC50 ratio of less than 3 fold between the IC50 in the HAP1 MTAP-intact cell line and the HAP1 MTAP-deleted cell line)”.
With `CC(=O)N1CCN(c2cc(C(=O)NC[C@H](O)CN3CCc4c(ccc(OCc5cnco5)c4Cl)C3)cc(NC3CCC3)n2)CC1` [Compound 545, (S)-2-(4-acetylpiperazin-1-yl)-N-(3-(5-chloro-6-(oxazol-5-ylmethoxy)-3,4-dihydroisoquinolin-2(1H)-yl)-2-hydroxypropyl)-6-(cyclobutylamino)isonicotinamide], the IC50 at PRMT5 [1] was 0.05 to 0.5 µM; against PRMT5 [2] it was 0.5 to 5 µM; at PRMT5 [3] it was 0.05 to 0.5 µM; in the assay with HAP1 MTAP-intact, ≥ 10 µM; in the assay with HAP1 MTAP-deleted, 1 to 10 µM. Also, the “SAM/MTA Ratio” value on PRMT5 [3] (setting [4]) was “A (a Ki ratio greater than or equal to 10 fold between the Ki in the presence of SAM and the Ki in the presence of MTA)”. Besides, the “MTAP Intact/Deleted Ratio” value with HAP1 MTAP-deleted is “B* (an IC50 ratio greater than or equal to 3 fold but lower than 10 fold between the IC50 in the HAP1 MTAP-intact cell line and the HAP1 MTAP-deleted cell line)”.
With `Cc1ncoc1COc1ccc2c(c1)CCN(C[C@@H](O)CNC(=O)c1cc(Nc3cccnc3)nc(N3CCCCC3)c1)C2` [Compound 601], the concentration for half-maximal inhibition (IC50) was 0.05 to 0.5 µM at PRMT5 [1]; 0.5 to 5 µM on PRMT5 [2]; < 0.05 µM at PRMT5 [3]; < 1 µM in the assay with HAP1 MTAP-intact; < 1 µM with HAP1 MTAP-deleted. Moreover, the “SAM/MTA Ratio” value at PRMT5 [3] (setting [4]) was “A (a Ki ratio greater than or equal to 10 fold between the Ki in the presence of SAM and the Ki in the presence of MTA)”. For the same molecule, the “MTAP Intact/Deleted Ratio” value with HAP1 MTAP-deleted was “B* (an IC50 ratio greater than or equal to 3 fold but lower than 10 fold between the IC50 in the HAP1 MTAP-intact cell line and the HAP1 MTAP-deleted cell line)”.
